Experimental data: publication PMC12766730, “Controlled Self-Immolative Release of β‑Lapachone via an Optimized para-Hydroxybenzyl Linker for Targeted Pancreatic Cancer Therapy” (Journal of the American Chemical Society, 2025)
Read-outs that look alike come from different tables or passages of the source. Blank lines part the entries; values can stand above or below the molecule they belong to.

What was measured:
[1] = set-up: method as in Dunsmore et al.; conditions: k obs of compound 4 previously reported, ref Dunsmore et al., cited from earlier work
PANC-1 [2] = test: Reactive oxygen species generation after 24 h treatment, PANC-1; format: cell-based
From the text: (§1) 8 Target expression, ROS production, and quinone methide toxicity in PDAC Cell Lines. […] The A549 cell line was used as a positive control for NQO1 enzyme expression, and the HL-60 cell line was used as a positive control for 5-LO enzyme expression. For β-glucuronidase expression, two consecutive technical replicates are shown for each biological replicate, with all three biological replicates represented for both cell lines. […] Results were normalized to baseline cellular ROS activity as 0 and positive control tert-butyl hydrogen peroxide (TBHP) as 100. Adjusted p-values of 0.0012 (**) and <0.0001 (****) are shown for statistically significant comparisons.

AsPC-1 [3] = test: Reactive oxygen species generation after 24 h treatment, AsPC-1; format: cell-based
From the text: as §1

PANC-1 [4] = test: PDAC cell viability after 72 h of treatment, PANC-1; format: cell-based; conditions: Homo sapiens, PANC-1, exogenous β-glucuronidase added
Method: (§2) All ortho-quinone prodrug derivatives were tested on two pancreatic cancer cell lines, PANC-1 and AsPC-1, to assess efficacy in cell killing (Figures , S88–89, S91, Tables , and S8.1). Exogenous β-glucuronidase was added to the cell media to mimic the extracellular enzyme present in the TME. […] Those derivatives with release rates slower than that of 16a, like 16e, had less efficacy in cells comparatively (Table ).
(§3) 7 PDAC cell viability with prodrug treatment. Representative PANC-1 (a) and AsPC-1 (b) cell viability data of four β-lapachone prodrug derivatives after 72 h of treatment with exogenous β-glucuronidase added. Panels (c, d) show the toxicity of functional prodrugs up to 100 μM in PANC-1 (c) and AsPC-1 (d) cells without exogenous β-glucuronidase enzyme present after 72 h incubation.
(§4) To assess the TW of the prodrug derivatives, we tested each of them in both the PANC-1 and AsPC-1 cell lines at up to 100 μM without the β-glucuronidase enzyme present. In agreement with the HPLC stability assay data, we saw no toxicity in all stable prodrug derivatives up to this concentration (Figure c,d). […] In comparison, all the stable glucuronide prodrug derivatives retained 100% viability at 100 μM. […] It is generally considered that a drug has a good therapeutic safety profile if the TI is greater than 10, which our best derivatives far exceed, signaling that our prodrug is safe to deliver systemically in future in vivo experiments and should not cause any adverse effects in areas where β-glucuronidase is not overexpressed. ,

AsPC-1 [5] = test: PDAC cell viability after 72 h of treatment, AsPC-1; format: cell-based; conditions: Homo sapiens, ASPC1, exogenous β-glucuronidase added, average ± SD of biological replicates, read-out: AsPC-1 IC50
Method: as §2, §3, §4

[6] = HPLC stability assay of prodrugs in buffers pH 3, 5, 7, 7.4 (PBS), 9 at 37 °C for 72 h without trigger; format: physicochemical; conditions: 37 °C, 72 h, pH 3–9
Method: The diastereomeric mixture of each β-glucuronide–PHB-β-lapachone prodrug (16a–j) and PAB derivative 22 were then tested for stability in citrate-phosphate buffers across a range of pHs (3, 5, 7, 7.4 (PBS), 9) via an HPLC stability assay. For derivatives 16a, 16b, 16d, 16e, 16h, and 16j, when no β-glucuronidase enzyme was added, both diastereomers of 16 were fully stable at 37 °C for 72 h (Figures a,d, S63, S64, S66–68, S71, and S73). […] This premature release was greatest at acidic pH 3 for 16g, with very minimal lapachone release detected at pH 5–9 (Figure c). The released lapachone was quantified and compared to the starting concentration of each prodrug to calculate the percent of the prodrug that had been prematurely released (Figures f,g, S76). […] Therefore, a trade-off exists between ring activation, improving the release rate from 3 while also decreasing prodrug stability, and it rendered 16g clinically disadvantageous.  5 Stability of prodrugs is pH dependent. The representative HPLC traces for (a) a stable prodrug 16a and (b) an unstable prodrug 16g are shown after incubation at 37 °C in pH 7.4 PBS buffer. […] (c) The area of the lapachone peak for 16g normalized to the IS was plotted, displaying substantial growth over time at pH 3. […] For panels c–g, each value is plotted as the mean ± SD of three replicates. The HPLC traces (Figures S50–S62) and peak area graphs (Figures S63–S75) for all other derivatives can be found in the Supporting Information. The stability of 26 was also evaluated from pH 3–9 (Figures d,f–h S86–S87). […] This degradation was the largest at pH 9, with a measurable decrease in the prodrug peak area after 72 h (Figure g). The lapachone released after 72 h was quantified using a standard curve (Tables S6.1–S6.2). At pH 3 and 5, approximately 0.2% of the total prodrug lapachone had been released.

[7] = set-up: method as in Gong et al.; conditions: pH 7.4; 5 equiv H2O2; ref Gong et al.; cited from earlier work
[8] = HPLC stability assay of prodrugs in buffers pH 3, 5, 7, 7.4 (PBS), 9 at 37 °C for 72 h without trigger; format: physicochemical; conditions: after dilution into aqueous buffer
[9] = no extracellular enzyme, compared to β-lapachone

SMILES: CC1(C)CCC2=C(O1)c1ccccc1C(O)(Cc1ccc(N)cc1)C2=O (stereo not drawn) [compound 4]
- half-life of quinone release at pH 5 ([1]; pH 5): 101 ± 7 h
- t 1/2 at pH 6 (drug release half-life) ([1]; pH 6): 931 h

- ROS generation with β-glucuronidase (PANC-1 [2]; β-glucuronidase added): restored generation of ROS
- ROS generation with β-glucuronidase (AsPC-1 [3]; β-glucuronidase added): restored generation of ROS
- IC50 (PANC-1 [4]; average ± SD of biological replicates, read-out: PANC-1 IC50): 700 ± 200 nM
- IC50 (PANC-1 [4]; representative experiment, read-out: IC50 on PANC-1, representative viability data (Figure 7a)): 600 nM
- IC50 (AsPC-1 [5]): 2900 ± 60 nM
- stability of the prodrug without triggering enzyme [6]: trace β-lapachone release was detected
SMILES: COc1cc(O[C@@H]2O[C@H](C(=O)O)[C@@H](O)[C@H](O)[C@H]2O)ccc1CC1(O)C(=O)C2=C(OC(C)(C)CC2)c2ccccc21 (mixture of isomers) [16f]
- ROS generation without β-glucuronidase (PANC-1 [2]; [9]): significantly less ROS than β-lapachone alone
- ROS generation without β-glucuronidase (AsPC-1 [3]; [9]): significantly less ROS than β-lapachone alone

- time to complete hydrolysis into boronic acid 26 [8]: ≤ 5 min
SMILES: CC1(C)CCC2=C(O1)c1ccccc1C(O)(Cc1ccc(B3OC(C)(C)C(C)(C)O3)cc1)C2=O (stereo not drawn) [compound 24]
- time to complete release of 1 [7]: ≤ 2 h
